Measured values: ChEMBL document CHEMBL1201862, “PubChem BioAssay data set” (2004)
Where “and” joins values, the source holds several entries; their conditions need not be identical. Identical values can stand only once. Calls of active or inactive are those of the source.

Key:
[1] = Luminescence Cell-Based Dose Confirmation HTS to Identify Activators of 5'UTR Stem-Loop Driven Alpha-Synuclein mRNA Translation in H4 Neuroglioblastoma Cells. [Related pubchem assays: 1829 (Project Summary), 1814 (Primary HTS)]; format: functional
H4 = assay: Luminescence Cell-Based Dose Response HTS to Identify Activators of 5'UTR Stem-Loop Driven Prion Protein mRNA Translation in H4 Neuroglioblastoma Cells. [Related pubchem assays: 1829 (Project Summary), 1814 (Primary HTS)]; format: functional; conditions: Homo sapiens
[2] = acridine orange displacement from DNA – biochemical, fluorescence polarization, cherry-pick, artefact control for RAD54 inhibitor project, dose response (AID 651673); format: functional
cells [3] = format: functional, cell-based
Cytochrome P450 2C19 = Cytochrome P450 2C19 (Homo sapiens, UniProt P33261); assay: Cytochrome panel assay with activity outcomes. Panel member name: p450-cyp2c19 Compounds with AC50 equal or less than 10 uM are considered active; format: functional; conditions: read-out: AC50
[4] = Luminescence Cell-Based Dose Response HTS to Identify Activators of Luciferase Translation or Activity in H4 […] Cells. [Related pubchem assays: 1829 (Project Summary), 1814 (Primary HTS)]; format: functional
Cytochrome P450 2D6 = Cytochrome P450 2D6 (Homo sapiens, UniProt P10635);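 also: CYP2D6 member of a cytochrome P450 panel assay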
cells [5] = format: functional, cell-based; remark: listed apart in the source
[6] = target: T1, DNA repair and recombination protein RAD54-like (Homo sapiens, UniProt Q92698); assay: RAD54 Holliday junction migration blockers – biochemical, fluorescence, cherry-picked samples, dose series, confirmation (AID 651657); format: functional
T1 sequence (Q92698 whole entry): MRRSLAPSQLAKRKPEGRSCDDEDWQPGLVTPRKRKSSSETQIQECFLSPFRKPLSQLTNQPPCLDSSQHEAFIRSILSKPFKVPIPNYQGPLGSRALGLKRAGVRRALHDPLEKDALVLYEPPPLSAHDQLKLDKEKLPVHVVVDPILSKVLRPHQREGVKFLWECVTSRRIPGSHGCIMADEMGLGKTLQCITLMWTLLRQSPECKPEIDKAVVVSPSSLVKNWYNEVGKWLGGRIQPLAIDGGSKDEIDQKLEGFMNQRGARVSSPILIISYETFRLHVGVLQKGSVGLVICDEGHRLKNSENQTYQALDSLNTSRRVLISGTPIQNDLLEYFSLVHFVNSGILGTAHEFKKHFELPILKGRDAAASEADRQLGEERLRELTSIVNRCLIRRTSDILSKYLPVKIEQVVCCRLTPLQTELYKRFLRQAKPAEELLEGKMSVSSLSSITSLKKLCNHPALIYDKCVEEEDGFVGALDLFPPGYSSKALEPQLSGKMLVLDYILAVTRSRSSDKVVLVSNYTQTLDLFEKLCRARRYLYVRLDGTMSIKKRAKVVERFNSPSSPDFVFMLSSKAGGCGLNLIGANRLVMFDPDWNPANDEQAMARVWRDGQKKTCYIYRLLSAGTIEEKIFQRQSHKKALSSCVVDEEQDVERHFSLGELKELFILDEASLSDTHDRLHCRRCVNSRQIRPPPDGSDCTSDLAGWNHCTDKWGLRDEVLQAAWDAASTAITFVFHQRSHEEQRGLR

[7] = target: Nuclear receptor subfamily 5 group A member 2 (Homo sapiens, UniProt O00482); format: functional, cell-based;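 also: HEK293T cells transfected with LRH-1 and a StAR promoter luciferase reporter; potency for inhibitors that lower LRH-1 driven reporter light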
Chain of Nuclear receptor subfamily 5 group A member 2 (O00482 whole entry): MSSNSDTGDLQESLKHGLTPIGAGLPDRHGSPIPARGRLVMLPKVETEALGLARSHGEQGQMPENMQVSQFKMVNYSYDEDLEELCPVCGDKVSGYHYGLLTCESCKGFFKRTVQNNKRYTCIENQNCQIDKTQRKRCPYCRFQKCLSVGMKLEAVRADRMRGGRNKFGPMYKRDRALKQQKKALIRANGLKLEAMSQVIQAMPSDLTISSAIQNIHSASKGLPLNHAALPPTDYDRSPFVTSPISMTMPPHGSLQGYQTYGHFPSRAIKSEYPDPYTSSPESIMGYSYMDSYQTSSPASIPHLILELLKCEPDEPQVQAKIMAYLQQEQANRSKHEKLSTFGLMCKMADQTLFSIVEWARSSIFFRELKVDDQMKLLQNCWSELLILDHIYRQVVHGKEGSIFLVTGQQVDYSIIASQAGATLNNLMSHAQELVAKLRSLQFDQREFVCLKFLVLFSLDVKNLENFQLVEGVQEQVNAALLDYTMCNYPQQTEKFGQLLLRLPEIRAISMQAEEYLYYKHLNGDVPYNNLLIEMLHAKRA

[8] = nonselective StAR promoter luciferase inhibitors – cell-based, luminescence, luciferase reporter, counter-screen for LRH-1 inverse agonist project, dose response (AID 651969); format: functional
Steroidogenic factor 1 = Steroidogenic factor 1 (Homo sapiens, UniProt Q13285); assay: Counterscreen for inverse agonists of the liver receptor homolog-1 (LRH-1; NR5A2): Luminescence-based cell-based high throughput dose response assay to identify inverse agonists of the Steroidogenic Factor 1 Nuclear Receptor (SF1; NR5A1).; format: functional
Chain of Steroidogenic factor 1 (Q13285 whole entry): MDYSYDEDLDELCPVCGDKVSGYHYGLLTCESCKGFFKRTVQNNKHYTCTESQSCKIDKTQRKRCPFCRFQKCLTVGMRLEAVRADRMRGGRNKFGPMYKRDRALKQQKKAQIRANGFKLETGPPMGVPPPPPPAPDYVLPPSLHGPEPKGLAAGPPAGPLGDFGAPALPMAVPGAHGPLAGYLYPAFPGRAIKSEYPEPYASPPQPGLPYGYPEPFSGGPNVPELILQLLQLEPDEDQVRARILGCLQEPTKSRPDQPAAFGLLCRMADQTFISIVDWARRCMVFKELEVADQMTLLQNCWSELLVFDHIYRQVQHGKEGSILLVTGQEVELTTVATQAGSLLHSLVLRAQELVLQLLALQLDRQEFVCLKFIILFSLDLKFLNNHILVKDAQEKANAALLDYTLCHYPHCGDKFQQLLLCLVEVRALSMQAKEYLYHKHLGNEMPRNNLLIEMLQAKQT

Cryptococcus neoformans [9] = assay: PubChem AID 686997; format: functional, organism-based
Cryptococcus neoformans [10] = assay: Cryptococcus growth inhibition by alamar blue – cell lysis, cherry-picks, replicate tests, mechanism study for C. neoformans antifungal project, dose response (AID 686999); format: functional, organism-based
Beta-lactamase [11] = target: Beta-lactamase (Salmonella choleraesuis (strain SC-B67), UniProt Q5J463); assay: Epi-absorbance-based counterscreen for selective VIM-2 inhibitors: dose response biochemical high throughput screening assay to identify inhibitors of TEM-1 serine-beta-lactamase.
Beta-lactamase [12] = target: T2, Beta-lactamase (Pseudomonas aeruginosa, UniProt Q79MP6); assay: […] counterscreen for selective VIM-2 inhibitors: dose response biochemical high throughput screening assay to identify inhibitors of IMP-1 metallo-beta-lactamase.
T2 sequence (Q79MP6 whole entry): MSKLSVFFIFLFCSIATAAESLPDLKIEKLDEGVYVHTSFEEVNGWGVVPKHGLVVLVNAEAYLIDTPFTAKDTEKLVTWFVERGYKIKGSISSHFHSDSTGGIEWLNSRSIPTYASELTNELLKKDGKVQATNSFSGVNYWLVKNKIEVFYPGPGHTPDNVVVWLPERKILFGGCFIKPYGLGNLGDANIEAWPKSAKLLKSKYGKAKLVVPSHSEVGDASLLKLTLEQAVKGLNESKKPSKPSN

Beta-lactamase [13] = target: T2, Beta-lactamase; assay: inhibition of IMP-1 beta-lactamase activity – biochemical, epi-absorbance, selectivity assay for VIM-2 inhibitor project, dose response (AID 1920)
[14] = Counterscreen for antagonists of the human trace amine associated receptor 1 (hTAAR1): Fluorescence-based cell-based high throughput dose response assay to identify nonselective Ga16 antagonists.; format: functional
[15] = Counterscreen for […] of the human trace amine associated receptor 1 (TAAR1): Fluorescence-based cell-based high throughput dose response assay to identify nonselective Ga16 agonists.; format: functional
[16] = target: T3, Ubiquitin-conjugating enzyme E2 N (Homo sapiens, UniProt P61088); format: functional;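 also: Dose-response confirmation in a TR-FRET assay detecting UBC13-driven polyubiquitin chain formation, inhibition measured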
T3 sequence (P61088 whole entry): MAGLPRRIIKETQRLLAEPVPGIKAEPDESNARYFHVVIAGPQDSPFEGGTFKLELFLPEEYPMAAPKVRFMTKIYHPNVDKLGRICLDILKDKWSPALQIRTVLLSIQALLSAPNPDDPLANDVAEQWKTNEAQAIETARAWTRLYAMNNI

[17] = target: DNA repair protein RAD52 homolog (Homo sapiens, UniProt P43351); format: functional, biochemical
Chain of DNA repair protein RAD52 homolog (P43351 whole entry): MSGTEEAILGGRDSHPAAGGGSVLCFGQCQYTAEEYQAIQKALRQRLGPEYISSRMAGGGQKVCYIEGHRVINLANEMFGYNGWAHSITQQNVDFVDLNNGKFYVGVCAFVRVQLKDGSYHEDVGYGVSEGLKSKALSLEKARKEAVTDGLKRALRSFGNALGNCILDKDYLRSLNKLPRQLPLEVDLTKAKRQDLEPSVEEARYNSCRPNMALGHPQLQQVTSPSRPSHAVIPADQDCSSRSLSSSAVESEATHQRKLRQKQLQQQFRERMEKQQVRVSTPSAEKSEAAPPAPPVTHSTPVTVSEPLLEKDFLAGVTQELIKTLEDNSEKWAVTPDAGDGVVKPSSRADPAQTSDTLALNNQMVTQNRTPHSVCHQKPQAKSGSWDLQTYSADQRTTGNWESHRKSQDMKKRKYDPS

HeLa = assay: viability loss in HeLa cells – cell-based, ATP luminescence, cherry-pick samples, cytotoxicity control, dose response (AID 687004); format: functional; conditions: Homo sapiens
[18] = target: Matrix metalloproteinase-14 (Homo sapiens, UniProt P50281); assay: Dose Response confirmation of uHTS hits for a small molecule inhibitors of MT1-MMP activation in a fluorescence assay set 2.; format: functional
[19] = target: Induced myeloid leukemia cell differentiation protein Mcl-1 (Homo sapiens, UniProt Q07820); format: functional
Paired box protein Pax-8 = Paired box protein Pax-8 (Homo sapiens, UniProt Q06710); assay: PAX8 transcriptional activity inhibition in RMG-I – RMG-I cells, luciferase, cherry-pick, dose response (AID 687027); format: functional, cell-based;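 also: luciferase reporter driven by Pax8 target thyroperoxidase promoter measured by SteadyGlo luminescence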
[20] = target: T4, Polyadenylate-binding protein 1 (Homo sapiens, UniProt P11940); assay: MLLE domain peptide-binding blockers, IC50 – biochemical, fluorescence polarization, FITC-PAM2 peptide, dose response (AID 602259); format: functional; conditions: read-out: IC50_Mean
T4 sequence (P11940 whole entry, the tested form may be a part): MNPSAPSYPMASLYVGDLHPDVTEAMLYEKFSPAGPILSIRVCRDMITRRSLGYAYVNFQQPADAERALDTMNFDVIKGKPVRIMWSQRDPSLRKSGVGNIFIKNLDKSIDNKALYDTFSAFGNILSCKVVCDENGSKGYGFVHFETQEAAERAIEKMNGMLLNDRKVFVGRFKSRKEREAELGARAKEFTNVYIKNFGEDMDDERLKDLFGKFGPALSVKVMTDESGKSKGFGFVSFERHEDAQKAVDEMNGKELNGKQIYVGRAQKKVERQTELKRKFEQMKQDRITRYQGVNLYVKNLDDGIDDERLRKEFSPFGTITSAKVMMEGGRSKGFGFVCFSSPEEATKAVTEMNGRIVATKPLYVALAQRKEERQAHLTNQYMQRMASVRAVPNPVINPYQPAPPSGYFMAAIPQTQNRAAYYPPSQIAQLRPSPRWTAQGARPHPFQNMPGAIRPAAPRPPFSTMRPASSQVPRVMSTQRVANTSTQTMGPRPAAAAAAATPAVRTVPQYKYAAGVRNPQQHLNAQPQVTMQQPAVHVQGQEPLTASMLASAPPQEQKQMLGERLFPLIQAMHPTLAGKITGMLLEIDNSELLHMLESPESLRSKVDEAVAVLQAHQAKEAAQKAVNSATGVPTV

[21] = HGIII-sPLA2 enzyme inhibition potency – biochemical, QFRET, IC50, dose response (AID 743457);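 also: green fluorescence rise as the enzyme cleaves BODIPY PC-A2 in liposomes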
HEK293 = assay: EBV LMP1 TES2 canonical NF-kB signalling blockers – cell-based, HEK293, luciferase, cherry-pick, dose response (AID 588343); format: functional; conditions: Homo sapiens
CHO = CHO cell viability loss, potency – luminescence, cytotoxicity control for TLR9-MyD88 binding inhibitor project, dose response (AID 588339); format: functional, cell-based, hamster; conditions: Cricetulus griseus;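 also: CHO cells stably coexpressing TLR9 and MyD88 fusions from primary screen; compound exposure lasted 48 hours before viability readout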
Vero = assay: viability of Vero cells under compound – cytotoxicity control for flavivirus capping enzyme inhibitors (AID 588742); format: functional; conditions: Chlorocebus sabaeus
Genome polyprotein = Genome polyprotein (dengue virus type 2, UniProt P29990); assay: flavivirus cap methylation enzyme inhibition – biochemical, confirmation dose response, primary screen (AID 588689); format: functional
Chain of Genome polyprotein (P29990 2492-3391 limits assumed): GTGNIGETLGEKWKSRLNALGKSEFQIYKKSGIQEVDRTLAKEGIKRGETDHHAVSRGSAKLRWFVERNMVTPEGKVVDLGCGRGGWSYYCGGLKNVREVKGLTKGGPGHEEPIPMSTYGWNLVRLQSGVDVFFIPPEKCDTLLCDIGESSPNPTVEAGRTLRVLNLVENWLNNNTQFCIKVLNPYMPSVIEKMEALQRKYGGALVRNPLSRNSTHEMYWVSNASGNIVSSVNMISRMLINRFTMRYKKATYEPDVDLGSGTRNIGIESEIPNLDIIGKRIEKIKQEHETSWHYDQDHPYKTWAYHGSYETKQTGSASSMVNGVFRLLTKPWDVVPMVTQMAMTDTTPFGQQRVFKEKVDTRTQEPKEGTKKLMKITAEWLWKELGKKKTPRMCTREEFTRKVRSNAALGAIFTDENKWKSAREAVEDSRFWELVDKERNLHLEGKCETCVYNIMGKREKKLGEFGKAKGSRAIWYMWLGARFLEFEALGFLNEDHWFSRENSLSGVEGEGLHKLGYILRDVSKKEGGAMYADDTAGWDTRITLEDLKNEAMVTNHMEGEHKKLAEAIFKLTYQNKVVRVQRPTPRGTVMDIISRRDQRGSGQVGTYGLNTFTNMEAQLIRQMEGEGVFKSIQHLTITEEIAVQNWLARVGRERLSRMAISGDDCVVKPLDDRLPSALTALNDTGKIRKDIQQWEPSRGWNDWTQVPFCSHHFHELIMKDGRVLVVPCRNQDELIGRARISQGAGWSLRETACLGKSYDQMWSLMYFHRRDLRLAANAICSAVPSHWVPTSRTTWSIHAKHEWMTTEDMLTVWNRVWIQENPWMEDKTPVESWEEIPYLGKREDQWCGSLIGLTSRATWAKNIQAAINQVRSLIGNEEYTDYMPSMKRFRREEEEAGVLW

Beta Lactamase = Beta Lactamase (Pseudomonas aeruginosa, UniProt Q932Y6); assay: BLA reporter interference, concentration series – BLA reporter cells, FRET fluorescence, artefact control for TLR9-MyD88 binding inhibitor project, dose response (AID 588341); format: cell-based;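 also: cell based assay in CHO-K1 cells stably expressing beta-lactamase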
[22] = general cell-killing toxicity readout – plate reader, dry powder samples, cytotoxicity control for PAX8 inhibitor project, dose response (AID 743021); format: functional, cell-based
[23] = target: T4, Polyadenylate-binding protein 1; assay: MLLE binding blockers, Cy5 peptide tracer – biochemical, fluorescence polarization, Cy5-PAM2 peptide, secondary, miRNA deadenylation inhibitor project, dose response (AID 602260); format: functional; conditions: read-out: IC50_Mean
[24] = target: Fructose-bisphosphate aldolase (Mycobacterium tuberculosis, UniProt P9WQA3); assay: Fluorescence-based biochemical high throughput dose response assay for inhibitors of the fructose-bisphosphate aldolase (FBA) of M. tuberculosis.; format: functional
Chain of Fructose-bisphosphate aldolase (P9WQA3 whole entry, the tested form may be a part): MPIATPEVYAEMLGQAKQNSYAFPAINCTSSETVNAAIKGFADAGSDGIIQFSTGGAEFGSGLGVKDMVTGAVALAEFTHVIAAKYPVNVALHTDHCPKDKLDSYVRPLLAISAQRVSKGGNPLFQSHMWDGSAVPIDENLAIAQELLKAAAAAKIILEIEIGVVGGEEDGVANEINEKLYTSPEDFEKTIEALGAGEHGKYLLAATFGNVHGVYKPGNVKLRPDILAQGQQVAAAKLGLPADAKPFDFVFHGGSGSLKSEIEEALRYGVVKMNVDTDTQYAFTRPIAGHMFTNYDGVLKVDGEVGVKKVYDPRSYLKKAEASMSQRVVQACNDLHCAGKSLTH

[25] = target: T5, Sentrin-specific protease 1 (Homo sapiens, UniProt Q9P0U3); assay: SENP1 catalytic domain blockers, concentration series – biochemical, kinetic FRET, dose response (AID 651697); format: functional; conditions: read-out: IC50_Mean
T5 sequence (Q9P0U3 whole entry, the tested form may be a part): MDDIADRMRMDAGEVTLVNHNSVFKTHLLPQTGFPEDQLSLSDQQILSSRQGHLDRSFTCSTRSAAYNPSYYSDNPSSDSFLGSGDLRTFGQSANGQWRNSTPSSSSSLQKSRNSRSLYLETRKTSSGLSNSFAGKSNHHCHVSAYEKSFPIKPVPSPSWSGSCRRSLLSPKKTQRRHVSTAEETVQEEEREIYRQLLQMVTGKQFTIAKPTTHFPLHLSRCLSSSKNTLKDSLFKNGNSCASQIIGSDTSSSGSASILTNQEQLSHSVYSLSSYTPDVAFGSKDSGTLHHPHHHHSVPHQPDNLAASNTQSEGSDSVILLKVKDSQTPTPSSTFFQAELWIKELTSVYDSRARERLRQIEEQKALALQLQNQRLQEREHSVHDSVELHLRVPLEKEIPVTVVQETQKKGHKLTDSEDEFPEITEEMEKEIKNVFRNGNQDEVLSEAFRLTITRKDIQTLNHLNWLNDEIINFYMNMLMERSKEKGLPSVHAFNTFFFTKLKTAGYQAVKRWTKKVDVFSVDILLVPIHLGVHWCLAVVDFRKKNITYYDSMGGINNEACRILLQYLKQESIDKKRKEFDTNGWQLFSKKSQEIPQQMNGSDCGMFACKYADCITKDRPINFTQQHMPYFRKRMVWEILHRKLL

[26] = target: T5, Sentrin-specific protease 1; assay: Dose response confirmation of small molecule inhibitors of the catalytic domain of the SUMO protease, SENP1 in a FRET assay.; format: functional; conditions: read-out: IC50_Mean
[27] = viability loss in LCL cells – cell-based, plate reader, dry powder, set 2, cytotoxicity control, dose response (AID 624367); format: functional
[28] = cytotoxicity in HEK293 background cells – cell-based, dry powder, set 2, counter-screen for EBV LMP1 inhibitor project, dose response (AID 624374); format: functional
[29] = inhibitors of EBV LMP1 NF-kappaB signaling – cell-based, luciferase reporter, luminescence, dry powder, set 2, dose response (AID 624376); format: functional
Albumin = Albumin (Bos taurus, UniProt P02769); assay: Counterscreen for inhibitors of T-cell receptor (TCR)-CD3 interaction: Fluorescence-based biochemical high throughput dose response assay to identify inhibitors of T-cell receptor (TCR)-CD3 interaction using a TAMRA-labeled BSA probe.; format: functional
Chain of Albumin (P02769 whole entry): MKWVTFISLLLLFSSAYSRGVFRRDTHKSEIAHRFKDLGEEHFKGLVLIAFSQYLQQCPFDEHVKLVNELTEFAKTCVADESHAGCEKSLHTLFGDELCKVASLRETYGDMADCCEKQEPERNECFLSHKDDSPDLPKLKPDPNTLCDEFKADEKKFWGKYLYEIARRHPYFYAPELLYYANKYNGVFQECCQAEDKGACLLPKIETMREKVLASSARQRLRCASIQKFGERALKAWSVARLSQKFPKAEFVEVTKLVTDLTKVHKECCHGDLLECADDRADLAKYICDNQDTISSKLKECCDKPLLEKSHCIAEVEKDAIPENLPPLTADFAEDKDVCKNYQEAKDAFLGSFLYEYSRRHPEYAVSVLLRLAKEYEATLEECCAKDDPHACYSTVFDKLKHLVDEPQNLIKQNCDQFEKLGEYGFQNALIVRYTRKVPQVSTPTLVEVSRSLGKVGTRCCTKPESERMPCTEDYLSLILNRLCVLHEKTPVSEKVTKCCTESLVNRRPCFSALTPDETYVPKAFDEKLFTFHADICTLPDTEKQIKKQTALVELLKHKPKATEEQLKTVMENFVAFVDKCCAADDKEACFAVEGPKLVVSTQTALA

## Cc1cc(C)c2c(N)c3ccccc3nc2n1
[1]
  EC50: 3.6 µM (active)
H4
  EC50: > 120 µM (not active)
[2]
  AC50: 41.4 µM (active)
Cells [3]
  EC50: 32.3 µM (active)
Cytochrome P450 2C19
  AC50: 5.62 µM (inconclusive)
[4]
  EC50: 8.34 µM (active)
Cytochrome P450 2D6
  AC50: 20 µM (inconclusive)
Cells [5]
  EC50: > 350 µM (not active)
[6]
  AC50: 5.7 µM (active)

## CCCc1cc(=O)oc2c(C)c(OCC(=O)NCCN3CCOCC3)ccc12
[7]
  IC50: 35.9 µM (inactive)
[8]
  IC50: 35.9 µM (inactive)
Steroidogenic factor 1
  IC50: 12.4 µM (inactive)

## COC(=O)C1=C(C)N(Cc2ccccc2)C(=S)N[C@H]1c1ccc(Br)cc1
Cryptococcus neoformans [9]
  AC50: 50.4 µM (active) and 14.1 µM (active)
Cryptococcus neoformans [10]
  AC50: 42.2 µM (active)

## O=C(CSc1nnc(NC(=O)C2CCCCC2)s1)NCc1ccco1
Beta-lactamase [11]
  IC50: > 59.6 µM (inactive)
Beta-lactamase [12]
  IC50: > 59.6 µM (inactive)
Beta-lactamase [13]
  IC50: > 59.6 µM (inactive)

## O=C(CCC(=O)N1CCOCC1)NCCc1ccc(F)cc1
[14]
  IC50: > 29.9 µM (inactive)
[15]
  EC50: > 29.9 µM (inactive)

## CN1CCN(CCCNC(=O)c2ccc(/C=C3\Oc4ccccc4N(Cc4ccccc4F)C3=O)cc2)CC1
[16]
  IC50: > 20 µM (inactive)
[17]
  AC50: 8.16 µM (active)
HeLa
  AC50: 17 µM (active)

## Cc1ccc(C(=O)NNc2c3ccccc3nc3ccccc23)cc1
[18]
  IC50: > 80 µM (inactive)
[19]
  IC50: 5.38 µM (active)

## COc1ccccc1N(C(C)=O)C1=C(Cl)C(=O)c2ccccc2C1=O
Paired box protein Pax-8
  AC50: 3.59 µM (active)
[20]
  IC50: > 66 µM (inactive)
[21]
  IC50: > 122 µM (inactive)
HEK293
  AC50: 5.98 µM (active)
CHO
  IC50: 1.03 µM (active)
Vero
  CC50: 22.6 µM (active)
Genome polyprotein
  IC50: 9.2 µM (active)
Beta Lactamase
  IC50: 5.37 µM (active)
[22]
  AC50: 27.8 µM (active)
[23]
  IC50: > 66 µM (inactive)

## CNc1ccc2ncc(-c3ccc(OC)c(OC)c3)n2n1
[24]
  IC50: 1.69 µM (active)

## Oc1nc2cc3ccccc3cc2nc1-c1nnnn1C1CCCC1
[25]
  IC50: 2.21 µM (active)
[26]
  IC50: 1.05 µM (active)

## O=C(C[C@H]1C[C@H]2c3cc(NS(=O)(=O)c4ccc(F)cc4)ccc3O[C@H]2[C@H](CO)O1)NCc1ccc(Oc2ccccc2)cc1
[27]
  AbsAC35: 45.43 µM
[28]
  AbsAC35: 70.4 µM

## CC(C)(C)[S@@+]([O-])N1Cc2cc(C(=O)NCc3ccccn3)nc(-c3cccc(-c4ccccc4F)c3)c2[C@H]1CCO
[29]
  AbsAC35: 49.61 µM

## Cn1c(SCC(=O)NNC(=O)c2ccccc2O)nnc1-c1ccccc1
Albumin
  IC50: > 94.2 µM (inactive)
